The term pEC50 denotes the negative decadic logarithm of the EC50, by convention in mol/L.

pEC50: −log10 of the molar value.

The values below come from article PMC9749938, “Alkyltriphenylphosphonium turns naphthoquinoneimidazoles into potent membrane depolarizers against mycobacteria” (RSC Medicinal Chemistry, 2022).

For the assay, the system named is inverted membrane vesicles of M. smegmatis mc^24517 overexpressing NDH2 (TB-ndh). Description: NADH oxidation in inverted membrane vesicles, TB-ndh. The assay is classed as biochemical. Particulars: read-out: EC50 of activation of NADH oxidation, TB-ndh IMV.
As to `CCCCCCCCn1c2c([n+](CCCC)c1C)C(=O)c1ccccc1C2=O.[Br-]` [Compound 45, reference compound], the pEC50 was 6.70.

Regarding `CCCCn1c2c([n+](C3CCC4(CCCCC4)CC3)c1C)C(=O)c1ccccc1C2=O.[Br-]` [Compound 44, reference compound], the pEC50 was 5.43.

As to `Cc1nc2c(n1CCCCCCCCCCC[P+](c1ccccc1)(c1ccccc1)c1ccccc1)C(=O)c1ccccc1C2=O.[I-]` [Compound 7], the pEC50 is 5.85.
